Results published in patent US10987349B2, “Antitumor agent and bromodomain inhibitor” (FUJIFILM Corporation, priority 2016, dated 2021).

What was measured:
[1] = tested on: MV4-11 subcutaneously transplanted tumor; experiment: Medicinal effect test, MV4-11-subcutaneously-transplanted cancer-bearing mouse models, oral administration; type: in vivo; conditions: orally, once per day, 14 days, BALB/c nu/nu mice
Procedure: The human acute myeloid leukemia cell line MV4-11 (ATCC) was suspended in a mixture of RPMI-1640 medium and Matrigel (Corning), and the obtained mixture was then subcutaneously transplanted into 6-week-old female BALB/c nu/nu mice (CLEA Japan, Inc.). After confirming that the average tumor volume exceeded 200 mm^3, a test compound was dissolved in a solvent (a 0.5% methyl cellulose aqueous solution or water containing 1 equivalent of hydrochloric acid), and the obtained solution was then orally administered to the mice at a daily dose of 10 to 30 mg/kg, once per day, for 14 days. As a negative control, a solvent administration group involving administration of a 0.5% methyl cellulose aqueous solution was established. The tumor diameter was measured on a daily basis, and the tumor volume was calculated. The tumor volume was calculated by measuring the major axis and minor axis of the tumor and then applying the following equation. Tumor volume (mm^3)=[major axis (mm)×minor axis (mm)×minor axis (mm)]/2
T/C (%) was calculated from the average tumor volume of each group according to the following equation, and medicinal effects were then evaluated. T/C(%)=[1−(average tumor volume of drug administration group)/(average tumor volume of solvent administration group)]×100%

[2] = tested on: human acute myeloid leukemia cell line MV4-11; experiment: Cell growth test (Cell Titer Glo) MV4-11; type: cell-based; conditions: 3 to 5 days
Excerpt: (§1) The human undifferentiated thymoma cell line Ty-82 (JCRB), the human acute myeloid leukemia cell lines MV4-11 (ATCC), MOLM-13 (ATCC) and RS4-11 (ATCC), the human lymphoma cell line Raji (JCRB), the human cervical epidermoid carcinoma cell line Hela (JCRB), the human lung adenocarcinoma cell line A549 (ATCC), the human colon cancer cell lines DLD1 (DS Pharma) and HCT116 (DS Pharma), and the human pancreatic cancer cell line MIAPACA-2 (ATCC) were used to carry out a cell growth test.
(§2) Ty-82, MV4-11, MOLM-13, RS4-11, Raji and DLD1 were each seeded in a well plate, in which Roswell Park Memorial Institute (RPMI)-1640 medium supplemented with penicillin/streptomycin and fetal bovine serum (FBS) with a final concentration of 10% was placed. Hela was seeded in Dulbecco's Modified Eagle's medium (DMEM) supplemented with penicillin/streptomycin and FBS with a final concentration of 10%. A549 and MIAPACA-2 were each seeded in a well plate, in which Minimum Essential Medium (MEM) supplemented with penicillin/streptomycin and FBS with a final concentration of 10% was placed. HCT116 was seeded in a well plate, in which McCoy's 5A medium supplemented with penicillin/streptomycin and FBS with a final concentration of 10% was placed.
(§3) Thereafter, a medium containing a test compound serially diluted with DMSO, or DMSO, was added to each well of the plate, in which the cells had been seeded, and the obtained mixture was then cultured under conditions of 37° C. and 5% CO2 for 3 to 5 days. Cell Titer Glo reaction solution (Promega) was added to the culture, and the amount of luminescence was then measured using Envision plate reader (PerkinElmer). Since the amount of luminescence is in proportion to the concentration of adenosine triphosphate (ATP) in cells, the amount of luminescence was used as an indicator of the number of living cells. The growth inhibition percentage of the test compound in each concentration was calculated according to the following equation. Growth inhibition percentage (%)=(amount of luminescence in test compound−added well)/(amount of luminescence in DMSO−added well)×100
(§4) The growth inhibition percentage of the test compound in each concentration was plotted by performing a non-linear regression analysis [(log (inhibitor) vs. response—Variable slope (four parameters)], using Graphpad prism 5, and a 50% growth inhibitory concentration [GI50 (nmol/L)] was then calculated.

[3] = tested on: human undifferentiated thymoma cell line Ty-82; experiment: Cell growth test (Cell Titer Glo) Ty-82; type: cell-based; conditions: TY82, 3 to 5 days
Excerpt: as §1, §2, §3, §4

BRD2 BD2 = biological target: T1, BRD2 BD2 (Homo sapiens, UniProt P25440); experiment: Binding assay, BRD2 BD2 to acetylated histone H4 Peptide-Biotin (EPIgeneous Binding Domain Kit B); conditions: for inhibition at 0.3 µM: test compound at 300 nmol/L, read-out: Binding inhibition percentage BRD2 BD2
T1 construct: BRD2 BD2, BRD3 BD2 and BRD4 BD2 (Cisbio); purchased Cisbio
T1 sequence (P25440 344-453 limits assumed): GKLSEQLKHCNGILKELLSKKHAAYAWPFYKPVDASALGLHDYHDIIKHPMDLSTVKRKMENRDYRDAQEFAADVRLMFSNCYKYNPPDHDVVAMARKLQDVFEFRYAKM
Method in brief: (§5)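 HTRF binding of GST-tagged BD2 (20 nmol/L working stock) to biotinylated acetyl-histone H4 peptide (250 nmol/L working stock), using streptavidin-XL665 and anti-GST Eu cryptate. Incubated 20 h at room temperature; 665/620 nm ratio versus DMSO gives % inhibition; IC50 by four-parameter fit, or % inhibition at 300 nmol/L.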

BRD4 BD1 = biological target: T2, BRD4 BD1 (Homo sapiens, UniProt O60885); experiment: Binding assay, BRD4 BD1 to acetylated histone H4 Peptide-Biotin (EPIgeneous Binding Domain Kit A); conditions: for inhibition at 0.3 µM: test compound at 300 nmol/L, read-out: Binding inhibition percentage BRD4 BD1
T2 construct: BRD2 BD1, BRD3 BD1 and BRD4 BD1 (Cisbio); purchased Cisbio
Method in brief: (§6)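 HTRF competition: bromodomain protein (added at 20 nmol/L) and biotinylated tetra-acetyl H4(1-25) peptide (added at 25 nmol/L) were incubated with compound, streptavidin-d2 and anti-GST Eu cryptate for 20 h at room temperature. Inhibition came from the 665/620 nm ratio relative to DMSO; IC50 by four-parameter fit; some compounds were tested only at 300 nmol/L final.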

[4] = tested on: human acute myeloid leukemia cell line MOLM-13; experiment: Cell growth test (Cell Titer Glo) MOLM-13; type: cell-based; conditions: 3 to 5 days
Excerpt: as §1, §2, §3, §4

BRD3 BD1 = biological target: T3, BRD3 BD1 (Homo sapiens, UniProt Q15059); experiment: Binding assay, BRD3 BD1 to acetylated histone H4 Peptide-Biotin (EPIgeneous Binding Domain Kit A); conditions: for inhibition at 0.3 µM: test compound at 300 nmol/L, read-out: Binding inhibition percentage BRD3 BD1
T3 construct: BRD2 BD1, BRD3 BD1 and BRD4 BD1 (Cisbio); purchased Cisbio
T3 sequence (Q15059 34-140 limits assumed): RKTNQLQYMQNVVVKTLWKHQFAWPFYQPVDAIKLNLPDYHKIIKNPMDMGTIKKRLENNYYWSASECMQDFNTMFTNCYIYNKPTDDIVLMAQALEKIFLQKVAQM
Method in brief: as §6

BRD3 BD2 = biological target: T4, BRD3 BD2 (Homo sapiens, UniProt Q15059); experiment: Binding assay, BRD3 BD2 to acetylated histone H4 Peptide-Biotin (EPIgeneous Binding Domain Kit B); conditions: for inhibition at 0.3 µM: test compound at 300 nmol/L, read-out: Binding inhibition percentage BRD3 BD2
T4 construct: BRD2 BD2, BRD3 BD2 and BRD4 BD2 (Cisbio); purchased Cisbio
T4 sequence (Q15059 306-415 limits assumed): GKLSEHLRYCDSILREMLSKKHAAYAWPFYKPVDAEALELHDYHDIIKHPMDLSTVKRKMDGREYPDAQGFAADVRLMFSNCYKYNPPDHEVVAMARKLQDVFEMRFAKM
Method in brief: as §5

BRD4 BD2 = biological target: T5, BRD4 BD2 (Homo sapiens, UniProt O60885); experiment: Binding assay, BRD4 BD2 to acetylated histone H4 Peptide-Biotin (EPIgeneous Binding Domain Kit B); conditions: for inhibition at 0.3 µM: test compound at 300 nmol/L, read-out: Binding inhibition percentage BRD4 BD2
T5 construct: BRD2 BD2, BRD3 BD2 and BRD4 BD2 (Cisbio); purchased Cisbio
Method in brief: as §5

BRD2 BD1 = biological target: T6, BRD2 BD1 (Homo sapiens, UniProt P25440); experiment: Binding assay, BRD2 BD1 to acetylated histone H4 Peptide-Biotin (EPIgeneous Binding Domain Kit A); conditions: for inhibition at 0.3 µM: test compound at 300 nmol/L, read-out: Binding inhibition percentage BRD2 BD1
T6 construct: BRD2 BD1, BRD3 BD1 and BRD4 BD1 (Cisbio); purchased Cisbio
T6 sequence (P25440 74-180 limits assumed): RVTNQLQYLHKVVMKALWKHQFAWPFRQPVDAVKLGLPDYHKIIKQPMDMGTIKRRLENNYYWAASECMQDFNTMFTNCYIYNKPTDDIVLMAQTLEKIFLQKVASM
Method in brief: as §6

GI50 [2] [nM]	GI50 [3] [nM]	IC50 (BRD2 BD2) [nM]	inhibition at 0.3 µM (BRD2 BD2) [%]	IC50 (BRD4 BD1) [nM]	inhibition at 0.3 µM (BRD4 BD1) [%]	GI50 [4] [nM]	IC50 (BRD3 BD1) [nM]	inhibition at 0.3 µM (BRD3 BD1) [%]	IC50 (BRD3 BD2) [nM]	inhibition at 0.3 µM (BRD3 BD2) [%]	IC50 (BRD4 BD2) [nM]	inhibition at 0.3 µM (BRD4 BD2) [%]	IC50 (BRD2 BD1) [nM]	inhibition at 0.3 µM (BRD2 BD1) [%]	SMILES	T/C (%) ([1]; 10 mg/kg)	T/C (%) ([1]; 30 mg/kg)
16	17	18	82	40	67	43	91	55	12	90	7	84	144	34	CCn1c(=O)cc(N2CCOCC2)c2cc(-n3c(-c4ccc(Cl)cc4)cn(C)c3=O)ccc21 [Example 246, 6-(5-(4-chlorophenyl)-3-methyl-2-oxo-2,3-dihydro-1H-imidazol-1-yl)-1-ethyl-4-(morpholin-4-yl)quinolin-2(1H)-one]	13	33
16	11	–	90	–	94	43	–	93	–	91	–	89	–	83	CCn1c(=O)cc(N2CCOCC2)c2cc(-n3c(-c4ccccc4)cn(C(C)C)c3=O)ccc21 [Example 247, 1-ethyl-4-(morpholin-4-yl)-6-(2-oxo-5-phenyl-3-(propan-2-yl)-2,3-dihydro-1H-imidazol-1-yl)quinolin-2(1H)-one]	–	33
